# How the values were obtained:
# [1] = tested on: Candida albicans; assay: Candida albicans induced vaginal infection in mice; type: in vivo, female mice; details: for EC50, Candida Vaginal Infection: Table I, percentage drug concentration giving 50% of the score of untreated control, intravaginal; for Score, Determination A / Score, Determination B / Score, Mean: score 0-4
# Method: A majority of the compounds of formula 3 were evaluated together with the prior art compound of formula 2 in a Candida albicans induced vaginal infection in mice and a Trichophyton quinekeanum induced skin infection in guinea pigs. Sabouraud broth was inoculated with Candida albicans and the inoculum incubated for two days at 28° C. on a rotary shaker. Groups of four to five female mice weighing between 18-21 grams were infected intravaginally with a 0.01 ml portion of the cell suspension containing 10^8 cells/ml on day 0. The mice were treated subcutaneously with 0.5 mg of estradiol benzoate three days before and four days after infection. The test compounds were suspended in 1% carboxymethyl cellulose and 0.02 ml of the suspension was instilled intravaginally from day 0 (four hours after infection) to day 4 (5 applications). On day 7, vaginal exudate was taken by a thin glass rod and streaked on a YGP agar plate containing 100 mcg/ml of chloramphenicol. The plate was incubated for two days at 28° C. […] In the following Table I the antifungal activity of the test compound is reported as the EC50 value, which is the percentage drug concentration giving 50% of the score of untreated control animals. The EC50 was calculated by the method of least squares (K. Brounlee: Statistical Theory and Methodology in Science and Engineering, pages 345-349, Wiley Press, New York, 1965). In Table II a more detailed comparison on the in vivo antifungal activities of compound 3a and the isomeric prior art compound 2 are shown together with the data for compound 3b.
# [2] = tested on: Trichophyton quinekeanum; assay: Trichophyton quinekeanum induced skin infection in guinea pigs; type: in vivo, male guinea pigs; details: for EC50, Trichophyton Skin Infection: Table I, percentage drug concentration giving 50% of the score of untreated control, topical ointment; for Score, Determ. F / Score, Mean: lesion score 0-4
# Method: In the guinea pig skin infection test, Trichophyton quinekeanum was cultured on a YGP agar slant at 28° C. for 10 days. Spores were collected from the mycelial mat and suspended in Sabouraud broth containing 2% of Tween 80. Groups of 3 male guinea pigs weighing between 400-500 g were used for each dose of test compound. The flanks of the animals were depilated and injured with sandpaper. The injured area was inoculated and rubbed with a glass rod on day 0 with 0.2 ml of the spore suspension containing 10^8 CFU/ml. The test compound was combined with a 1:1 mixture of polyethylene glycol 400 and 4000, and 0.3 ml of the ointment was applied to the infected area on day 1, 3 and 5. Lesions were examined on day 7 and scored as follows: 0, normal; 1, erythema; 2, erythema with whitish area; 3, erythema and numerous whitish areas; 4, erythema with confluent scaling and whitish pateches. A compound showing a mean score of 1.5 or less was considered active.
# In the following Table I the antifungal activity of the test compound is reported as the EC50 value, which is the percentage drug concentration giving 50% of the score of untreated control animals. The EC50 was calculated by the method of least squares (K. Brounlee: Statistical Theory and Methodology in Science and Engineering, pages 345-349, Wiley Press, New York, 1965). In Table II a more detailed comparison on the in vivo antifungal activities of compound 3a and the isomeric prior art compound 2 are shown together with the data for compound 3b.
# Treatment: 5 applications (day 0 to 4) against candida vaginal infection
# and 3 applications (day 1, 3 and 5) against trichophyton skin infection
# [3] = tested on: Streptococcus pneumoniae; assay: in vitro antibacterial activity (MIC), S. pneumoniae; type: cell-based; details: 50% Nutrient Broth + 5% human serum
# [4] = tested on: Streptococcus pyogenes; assay: in vitro antibacterial activity (MIC), S. pyogenes; type: cell-based; details: 50% Nutrient Broth + 5% human serum
# [5] = tested on: S. faecalis; assay: in vitro antibacterial activity (MIC), S. faecalis; type: cell-based, Streptococcus faecalis; details: Enterococcus faecalis; Nutrient Broth
# [6] = tested on: Staphylococcus aureus; assay: in vitro antibacterial activity (MIC), S. aureus; type: cell-based; details: Nutrient Broth
"EC50, Candida Vaginal Infection [1]","EC50, Trichophyton Skin Infection [2]",MIC [3],MIC [4],MIC [5],MIC ([6]; Strain A),MIC ([6]; Strain B),MIC ([6]; Strain C),Structure (SMILES),further results
> 0.3%,0.10%,,,,,,,"Clc1ccc(SCCSC(Cn2ccnc2)c2ccc(Cl)cc2Cl)cc1 (centres unmarked) [Compound 2, reference compound]","EC50 (%) (95% CL), Candida vaginal infection ([1]; Table II, N = 5, 5 applications day 0 to 4): > 0.3%; Score, Determination A ([1]; conc. 0.03%): 2.8; Score, Determination B ([1]; conc. 0.03%): 3.2; Score, Mean ([1]; conc. 0.03%): 3.0; Score, Determination A ([1]; conc. 0.1%): 2.4; Score, Determination B ([1]; conc. 0.1%): 3.0; Score, Mean ([1]; conc. 0.1%): 2.7; Score, Determination A ([1]; conc. 0.3%): 3.4; Score, Determination B ([1]; conc. 0.3%): 1.8; Score, Mean ([1]; conc. 0.3%): 2.6; EC50 (%) (95% CL), Trichophyton skin infection ([2]; Table II, N = 4, 3 applications day 1, 3 and 5): 0.10%; Score, Determ. F ([2]; conc. 0.03%): 2.3; Score, Mean ([2]; conc. 0.03%): 2.3; Score, Determ. F ([2]; conc. 0.1%): 2.3; Score, Mean ([2]; conc. 0.1%): 2.3; Score, Determ. F ([2]; conc. 0.3%): 0.5; Score, Mean ([2]; conc. 0.3%): 0.5"
0.0022%,0.038%,,,,,,,"Cl.Clc1ccc(C(Cn2ccnc2)SCSCc2ccc(Cl)s2)c(Cl)c1 (centres unmarked) [Compound 3i, 1-[2-(5-Chloro-2-thienylmethylthiomethylthio)-2-(2,4-dichlorophenyl)ethyl]-1H-imidazole hydrochloride]",
0.0042%,0.046%,63 µg/mL,63 µg/mL,2 µg/mL,0.5 µg/mL,> 63 µg/mL,0.5 µg/mL,"Cc1ccc(CSCSC(Cn2ccnc2)c2ccc(Cl)cc2Cl)cc1.O=C(O)/C=C/C(=O)O (centres unmarked) [Compound 3c, 1-[2-(2,4-Dichlorophenyl)-2-(4-methylbenzylthiomethylthio)ethyl]-1H-imidazole hydrogen fumarate]",
,,63 µg/mL,63 µg/mL,1 µg/mL,1 µg/mL,8 µg/mL,2 µg/mL,"Clc1ccc(C(Cn2ccnc2)SCSCc2ccc(Cl)cc2Cl)cc1.O=C(O)/C=C/C(=O)O (centres unmarked) [Compound 3g, 1-[2-(4-Chlorophenyl)-2-(2,4-dichlorobenzylthiomethylthio)ethyl]-1H-imidazole hydrogen fumarate]",
,,63 µg/mL,63 µg/mL,4 µg/mL,1 µg/mL,> 63 µg/mL,1 µg/mL,"Clc1ccc(CSCSC(Cn2ccnc2)c2ccc(Cl)cc2)cc1.O=C(O)/C=C/C(=O)O (centres unmarked) [Compound 3f, 1-[2-(4-Chlorobenzylthiomethylthio)-2-(4-chlorophenyl)ethyl]-1H-imidazole hydrogen fumarate]",
